Laboratory results taken from patent publication US20260363239A1, “COMPOSITIONS TO CONTROL LEVEL OF UNDESIRABLE MATERIALS” (Solugen, Inc., priority 2022, published 2026).
In brackets after ≈: the same amount, converted by molar mass.

Experiments:
E. Coli = experiment: Minimum inhibitory concentration (MIC) against E. coli; assay type: cell-based; conditions: Escherichia coli
Experimental: (§1) A minimum inhibitory concentration (MIC) of a MUM was determined and compared to that of the biocide glutaraldehyde. Specifically, the indicated compound or blend of compounds was used to treat a wildtype E. coli strain and the effect of this treatment on bacterial count used to determine the MIC.
(§2) However, the mixture of the glyoxal and glycolaldehyde (1,4 dioxane 2,5 diol) provided competitive performance to glutaraldehyde.

[1] = system: general wild strain bacteria; experiment: Minimum inhibitory concentration (MIC) against general wild strain bacteria; assay type: cell-based
Experimental: as §1, §2

| SMILES | MIC (E. Coli) | MIC [1] |
| --- | --- | --- |
| OC1COC(O)CO1 (stereo not drawn) [39% 1,4 dioxane 2,5 diol, 1,4 dioxane 2,5 diol] | 1000 µg/mL (≈ 8.33 mM) | > 1000 µg/mL |
| O=CC=O [39% glyoxal, glyoxal] | 1000 µg/mL (≈ 17.2 mM) | > 1000 µg/mL |
| O=CCCCC=O [40% glutaraldehyde, glutaraldehyde] | 1000 µg/mL (≈ 9.99 mM) | 1000 µg/mL (≈ 9.99 mM) |
